Experimental data published in article PMC5951806, “Rapid labelling and covalent inhibition of intracellular native proteins using ligand-directed N-acyl-N-alkyl sulfonamide” (Nature Communications, 2018).
Several values for one entry are separate records, joined by “and”; a condition that tells them apart may be missing. Equal values may be shown once. Each block holds one molecule with its values, some of them ahead of it.

What was measured:
endogenous Hsp90 = assay: Hsp90 labelling with 11 in live HeLa cells in the presence of competitive Hsp90 inhibitors; conditions: 11 0.5 µM, 10 µM competitive inhibitor
Hsp90α = system: Hsp90α; design: method as in Supplementary References 1 and 2; conditions: reported for Hsp90α; ref Supplementary References 1 and 2; cited from earlier work
[1] = Evaluation of stabilities of LDNASA reagents (hydrolysis in aqueous buffer, HPLC); conditions: for fraction hydrolysed: after incubation for 48 h at 37 °C, 50 mM HEPES pH 7.2
Method: FKBP12 labelling was conducted in test tubes by incubating each NASA reagent (1–3) (10 µM) with purified recombinant (wild-type) FKBP12[13] (5 µM, Mw: 11 914 Da) at 37 °C in a buffer solution (pH 7.2). The labelling reactions were monitored by matrix-assisted desorption/ionisation time-of-flight mass spectrometry (MALDI-TOF MS). […] The intrinsic reactivity of the reagents was evaluated by the hydrolysis rate in aqueous buffer.
LDNASA 1–3 (10 μM) and internal standard (Trimethoprim, 10 μM) were incubated in HEPES buffer (50 mM, pH 7.2) at 37 °C. Samples at different time points were taken and analysed by RP-HPLC.

FKBP12 [2] = target: T1, FKBP12 (Homo sapiens, UniProt P62942); assay: FKBP12 labelling in vitro (MALDI-TOF MS); assay type: biochemical; conditions: for FKBP12 labelling yield: 5 µM FKBP12, 10 µM reagent, pH 7.2, 37 °C
T1 construct: GST (factor Xa site) (N, cleaved yes); made in house; host or cells: E. coli BL21 Star (DE3)
Text: Recombinant human FKBP12 was obtained as described in Supplementary Methods.

eDHFR = target: T2, eDHFR (Escherichia coli, UniProt P0ABQ4); assay: Kinetic analysis of eDHFR labelling; assay type: biochemical; conditions: for kL, labelling rate constant: eDHFR 300 nM, HEPES 1 mM pH 7.2, 37 °C, mean of triplicate ± s.d.; for kinact/KI / Kd: eDHFR, pH 7.2, 37 °C; for kinact/KI: read-out: kL/Kd, second-order rate constant; for Kd: from curve fitting of kapp vs reagent concentration
T2 construct: thioredoxin (N, cleaved yes); made in house; host or cells: E. coli Top10

FR = target: FR; design: method as in PMID 2552922; conditions: cited from earlier work
FKBP12 [3] = target: T1, FKBP12; assay: Kinetic analysis of FKBP12 labelling; assay type: biochemical; conditions: for kL, labelling rate constant: FKBP12 100 nM, HEPES pH 7.2, 37 °C, mean of triplicate ± s.d.; for Kd: from curve fitting of kapp vs reagent concentration, FKBP12, pH 7.2, 37 °C; for kinact/KI: pH 7.2, read-out: kL/Kd, second-order rate constant
Text: With the optimal NASA reactive group in hand, we next investigated the reaction kinetics of LD chemistry in in vitro protein labelling. The labelling reaction of LD chemistry follows Eq. (1):1 P+R⇆KdPR→kLP^* where P is a native (non-labelled) protein, R is the reagent, PR is the native protein–reagent complex, P* is the labelled-protein, Kd is the dissociation constant and kL is the rate constant for the labelling process. When [R] > [P], the pseudo-first-order reaction rate (kapp) is given as follows (see Supplementary Methods)[35]:2 P+PR/P0= exp-kappt 3 kapp=kL/1+Kd∕R […]
The reaction time courses of FKBP12 labelling with various concentrations of 1 (200–2000 nM) were monitored by MALDI-TOF MS (Fig. 3b) and plotted to determine kapp using Eq. (2) (Fig. 3c). The values of kapp obtained in this manner were then plotted against the concentration of 1, which were well fitted by Eq. (3) (Fig. 3d). The labelling rate constant kL and the dissociation constant Kd of 1 were determined from curve fitting analysis to be (6.1 ± 0.6) × 10^−3 s^−1 and (2.1 ± 0.2) × 10^−7 M, respectively (the mean of triplicate ± standard deviation (s.d)) (Table 1).
The residual ratio of nonlabelled protein ([P] + [PR]/[P]0) were determined by MALDI-TOF MS (matrix: CHCA). The pseudo-first order reaction rates (kapp) were obtained by fitting the data to Eq. (2). Kinetic parameters were obtained by fitting the data to Eq. (3).
Kinetics of labelling reaction of LD chemistri es
The labelling reaction of LD chemistr y follows as Supplementary Equation (2) 3: where P is a native (non- labelled) protein, R is a reagent, PR is a native protein- reagent complex, P* is a labelled-protein, Kd is a dissociation constant, and k L is a rate constant for labelling process. Hyd r o l ys i s (deactivation) of LD reagents during the labelling process is negligible owing to these stabilities in buffer s olution (Supplementary Figure 3, also see
Supplementary R eferences 4–6) . The equations to be solved for the rate of labelling reaction […]
The solution of the equat ions is
According to the Supplementar y Equation (4), the k L and Kd values were obtained from the […]
Preparation of purif ied FKB P12

FKBP12 [4] = target: T1, FKBP12; assay: FKBP12 labelling in HeLa cell lysate (western blotting); assay type: biochemical; conditions: 37 °C
endogenous FKBP12 = target: T3, endogenous FKBP12 (Mus musculus, UniProt P26883); assay: Chemical labelling of endogenous FKBP12 in C2C12 cells; assay type: cell-based; conditions: live C2C12 cells, 1 µM
T3 construct: endogenous FKBP12 inside live cells was specifically modified with biotin; endogenous in cells; host or cells: C2C12 mouse myoblast cells (ATCC)
Method: We then conducted intracellular endogenous FKBP12 labelling. Mouse myoblast C2C12 cells were incubated in culture medium containing 1 for 10–120 min at 37 °C. The cells were lysed and analysed by western blotting. […] Although the reaction rate was slightly slower than that of the in vitro experiments, probably because of the low membrane-permeability of 1, it should be noted that the labelled band was detectable after just 10 min incubation with 1, highlighting the rapid kinetics of LDNASA chemistry.
Mouse myoblast C2C12 cells (ATCC) (2.0 × 10^5 cells) were cultured in Dulbecco’s modified Eagle’s medium (DMEM) supplemented with 10% foetal bovine serum (FBS, Gibco), penicillin (100 units/ml), streptomycin ([…]), and amphotericin B (250 ng/ml), and incubated in a 5% CO2 humidified chamber at 37 °C. The cells were then incubated in FBS-free DMEM containing reagent (1 μM) at 37 °C for 120 min. As control experiments, the labelling was conducted in the presence of Rapamycin (10 μM). For western blot analysis, after washing twice with PBS, the cells were lysed with RIPA buffer (pH 7.4, 25 mM Tris–HCl, 150 mM NaCl, 0.1% SDS, 1% Nonidet P-40, 0.25% deoxycholic acid) containing 1% protease inhibitor cocktail set III (Calbiochem). […] The samples were subjected to SDS-PAGE and electro-transferred onto an Immun-Blot PVDF membrane (Bio-Rad). The labelled FKBP12 was detected by chemiluminescence analysis using Streptavidin-HRP conjugate, rabbit anti-FKBP12 antibody (Abcam, ab2918, 1:1000) and anti-rabbit IgG-HRP conjugate (CST, #7074 S, 1:5000).
Supplementary Figure 11 Quantification of labelling yields of endogenous FKBP12 in C2C12 cells. After C2C12 cells were incubated with LDNAS A 1 (1 µM) for 1 h, the cells were washed twi ce with PBS and l ys ed with R IPA buffer (pH 7.4, 25 mM Tris–HCl, 150 mM NaCl, 0.1% SDS, 1% Nonidet P-40, 0.25% deoxycholic acid) containing 1% protease inhibitor cocktail and rapamycin (10 µM) , which were aliquoted as input samples. All biotinylated proteins in the lysate were captured with Streptavidin agarose beads ( S Av -agarose, Thermo ). The flow through and elution fraction, as well as i nput samples, wer e subjected to Western blotting analysis using SAv- HRP and anti-FKBP12 antibody. Th e labelling yields were calculated by the following equation( Supplementar y Equation1) :
LLLLLLLLLLLLLLLLLL yy LLLLLLyy ( %) = IILLII LLLLII LLIIyyFFFFFFFF12 ,IIIIIIIIII – IILLII LLLLII LLIIyyFFFFFFFF12,FFFFFFFF IIhrrFFIIrr h × 100 ( 1) IILLII LLLLII LLIIyyFFFFFFFF12 ,IIIIIIIIII
Experiments were performed in triplicates (Ex.1–Ex.3), and the labelling yields of endogenous FKBP12 in C2C12 cells at 1 h with 1 were estimated to be 78 ± 2 % (mean ± standard deviation). Control, a sample without labelling; *, Nonspecific band derived from […]

intracellular Hsp90 = conditions: SKBR3 cells, pre-treated 1–10 µM for 3 h, washed, then 11 0.5 µM
Text: The cells were washed, lysed and analysed by in-gel fluorescence imaging. […] Error bars represent s.d., n = 3

[5] = target: N-terminal domain of Hsp90α (Homo sapiens, UniProt P07900); assay: In vitro labelling of N-terminal domain of Hsp90α (MALDI-TOF MS); conditions: 6.4 µM protein, 10 µM 12, 37 °C; at Lys 58
Method: Aliquots at different time points were taken and then desalted using a Ziptip-C4. The modification yields were determined by MALDI-TOF MS (matrix: sinapic acid)
Reaction conditions: 6.4 µ M

[6] = system: Hsp90-client proteins HER2, cRaf, Akt and pAkt; assay: Western blotting of Hsp90 client proteins; conditions: SKBR3, 3 h treatment, washing, further 21 h
Method: We also examined the expression levels of client proteins of Hsp90 (Fig. 6e, f).
The cells were washed with PBS, and lysed with RIPA buffer containing 1% protease inhibitor cocktail. The lysed samples were centrifuged (15 200 × g, 10 min at 4 °C). The protein concentrations of supernatant were analysed by BCA assay, and the normalised lysates were mixed with 1/4 volume of 5 × sample buffer containing 250 mM DTT and vortexed for 1 h at room temperature.

SKBR3 cells = assay: Cell viability assay (WST-8); conditions: SKBR3, 3 h treatment, washing, further 69 h
Method: The cell viability was assessed using Cell Counting Kit-8 (Dojin).

[7] = target: N-terminal ATP binding domain of Hsp90α (Homo sapiens, UniProt P07900)
Text: courses of the depletion of native (non- labelled ) N-terminal ATP binding domain of Hsp90α
Purified N -terminal ATP binding domain of
The pseudo- first order reaction rates (k app) were obtained by fitting the dat a to Supplementary
Equation (3). (b) The dependence of kapp upon the concentration of reagent 12. Kinetic
parameters for covalent inhibition (ki nact and Ki) were obtained by fitting the data to
Supplementary Equation (4).

T2 sequence (P0ABQ4 whole entry): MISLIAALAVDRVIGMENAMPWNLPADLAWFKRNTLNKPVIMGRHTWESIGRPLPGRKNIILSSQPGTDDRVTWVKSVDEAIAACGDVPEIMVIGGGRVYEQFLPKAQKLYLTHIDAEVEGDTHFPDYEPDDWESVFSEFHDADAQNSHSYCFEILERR
T1 sequence (P62942 whole entry): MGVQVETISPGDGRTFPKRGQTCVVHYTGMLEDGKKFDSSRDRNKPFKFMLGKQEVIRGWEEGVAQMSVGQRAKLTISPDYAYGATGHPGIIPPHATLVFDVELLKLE
T3 sequence (P26883 whole entry): as the sequence (P62942 whole entry) above, with M50T, T76I, P79S counted along it

Structure (SMILES): CC(C)NCCCn1c(Sc2cc(Cl)cc(Cl)c2)nc2c(N)ncnc21 [PU-WS13]
inhibition of Hsp90 labelling by 11 (endogenous Hsp90): less potent inhibition
IC50 (Hsp90α): 27 µM

fraction hydrolysed [1]: 5%
FKBP12 labelling yield (FKBP12 [2]; after a 2-h incubation): 22%
Structure (SMILES): CCC(C)(C)C(=O)C(=O)N1CCCC[C@H]1C(=O)O[C@H](CCc1ccc(OC)c(OC)c1)c1cccc(OCC(=O)NCCCCCNC(=O)c2ccc(S(=O)(=O)N(Cc3ccc([N+](=O)[O-])cc3)C(=O)CCCC[C@@H]3SCC4NC(=O)NC43)cc2)c1 (some centres unmarked) [compound 2]

Structure (SMILES): CCN(CC)c1ccc2cc(C(=O)Oc3c(Br)cc(C(=O)NCCCCCNC(=O)CCCCOc4c(OC)cc(Cc5cnc(N)nc5N)cc4OC)cc3Br)c(=O)oc2c1 [compound 7]
kL, labelling rate constant (eDHFR): (3.4 ± 0.3) × 10^−4 s^−1
kinact/KI (eDHFR): 590 M⁻¹ s⁻¹
Kd (eDHFR): 0.58 µM

Structure (SMILES): CN(Cc1cnc2nc(N)nc(N)c2n1)c1ccc(C(=O)N[C@@H](CCC(=O)O)C(=O)O)cc1 [methotrexate]
Kd (FR): ~0.2 µM

Structure (SMILES): CCC(C)(C)C(=O)C(=O)N1CCCC[C@H]1C(=O)O[C@H](CCc1ccc(OC)c(OC)c1)c1cccc(OCC(=O)NCCCCCNC(=O)c2ccc(S(=O)(=O)N(Cc3ccc([N+](=O)[O-])cc3[N+](=O)[O-])C(=O)CCCC[C@@H]3SCC4NC(=O)NC43)cc2)c1 (some centres unmarked) [compound 3]
fraction hydrolysed [1]: 5%
FKBP12 labelling yield (FKBP12 [2]; after a 2-h incubation): 17%

Structure (SMILES): COc1cc(C(=O)C(=O)N2CCCCC2C(=O)NCCOCCOCC(=O)NCCCCCNC(=O)c2ccc(S(=O)(=O)N(CC#N)C(=O)CCCCC3SCC4NC(=O)NC43)cc2)cc(OC)c1OC (centres unmarked) [compound 8]
kL, labelling rate constant (FKBP12 [3]): (7.6 ± 1.7) × 10^−3 s^−1
kL/Kd, fold less than 1 (FKBP12 [3]; FKBP12 labelling): 392 fold
Kd (FKBP12 [3]): 100 µM
kinact/KI (FKBP12 [3]): 74 ± 19 M⁻¹ s⁻¹
concentration required to obtain the same signal intensity as biotinylated FKBP12 labelled by 1 (FKBP12 [4]; HeLa cell lysate with 1 µM FKBP12, 1 h, 1 at 1 µM): 20 µM

Structure (SMILES): CCC(C)(C)C(=O)C(=O)N1CCCCC1C(=O)OC(CCc1ccc(OC)c(OC)c1)c1cccc(OCC(=O)N2CCN(C(=O)c3cccc(S(=O)(=O)OCCOCCOCCNC(=O)CCCCC4SCC5NC(=O)NC54)c3)CC2)c1 (centres unmarked) [compound 5, reference compound]
kL, labelling rate constant (FKBP12 [3]): (9.6 ± 0.2) × 10^−6 s^−1
Kd (FKBP12 [3]): 0.21 µM
kinact/KI (FKBP12 [3]): 45 ± 6 M⁻¹ s⁻¹
endogenous FKBP12 labelling (endogenous FKBP12; <120 min): failed to label FKBP12

Ki [7]: 0.062 µM
kinact/KI ([7]; pH 7.2, read-out: second-order rate constant of the covalent inhibition): 29000 M⁻¹ s⁻¹
Structure (SMILES): N#CCN(C(=O)CCCC(=O)NCCCn1c(Sc2cc3c(cc2I)OCO3)nc2c(N)ncnc21)S(=O)(=O)c1ccccc1 [compound 12]
blocking of fluorescent labelling of Hsp90 by 11 after washout (intracellular Hsp90): strongly inhibited the fluorescent labelling
covalent attachment of the PU-H71 ligand to Hsp90 N-terminal domain [5]: quantitative and single covalent attachment
Hsp90-client protein levels after washout [6]: decrease in Hsp90-client proteins was also observed
cytotoxicity / growth inhibitory effect after washout (SKBR3 cells): clearly showed a growth inhibitory effect

Structure (SMILES): CCN(CC)c1ccc2cc(C(=O)NCCOCCOC(=O)n3cnc(CC(=O)NCCCCCNC(=O)CCCCOc4c(OC)cc(Cc5cnc(N)nc5N)cc4OC)c3)c(=O)oc2c1 [compound 6]
kL, labelling rate constant (eDHFR): (5.8 ± 0.1) × 10^−6 s^−1
kinact/KI (eDHFR): 11 ± 1 M⁻¹ s⁻¹
Kd (eDHFR): 0.55 µM

Structure (SMILES): CCC(C)(C)C(=O)C(=O)N1CCCC[C@H]1C(=O)O[C@H](CCc1ccc(OC)c(OC)c1)c1cccc(OCC(=O)NCCCCCNC(=O)c2ccc(S(=O)(=O)N(CC#N)C(=O)CCCC[C@@H]3SCC4NC(=O)NC43)cc2)c1 (some centres unmarked) [compound 1]
half-life at 10 µM ([1]; HEPES buffer, pH 7.2): 43 h
FKBP12 labelling yield (FKBP12 [2]; within 15 min): 98%
initial rate, fold faster than 2 (FKBP12 [2]; FKBP12 labelling, 1 versus 2): 49 fold
initial rate, fold faster than 3 (FKBP12 [2]; FKBP12 labelling, 1 versus 3): 105 fold
FKBP12 labelling in the presence of rapamycin (competitive ligand) (FKBP12 [2]; in vitro, with rapamycin): completely abolished
kL, labelling rate constant (FKBP12 [3]): (6.1 ± 0.6) × 10^−3 s^−1
kL, fold higher than that of LDT 5 (FKBP12 [3]; FKBP12 labelling): 635 fold
Kd (FKBP12 [3]): 0.21 µM
kinact/KI (FKBP12 [3]): 29000 M⁻¹ s⁻¹
incubation time after which the labelled band was detectable (endogenous FKBP12): 10 min
labelling yield of endogenous FKBP12 (endogenous FKBP12; 60 min, 37 °C): 78 ± 2% and 78%
labelling yield of endogenous FKBP12 (endogenous FKBP12; 120 min): almost quantitative
ratio of unspecific to specific labelling (FKBP12 [4]; HeLa cell lysate with 1 µM FKBP12, reagent 1–20 µM, 1 h): less than 0.15
